We go through 7 molecules from patent publication US4388233A, “Synthetic substrates for enzyme analysis” (priority 1981, dated 1983).

Where two headings read alike, the source gives them in different places.

The nature of data set [1]: Fluorescence properties of liberated detector compounds. Conditions: for Em: fluorescence emission wavelength of detector compound; for Ex: fluorescence excitation wavelength of detector compound; for Rel. Int.: relative fluorescent intensity of detector compound. The class given is physicochemical. An excerpt: The presence of the liberated D compound can be qualitatively or quantitatively determined fluorometrically, or may be utilized in colorimetric assays.

For data set [2] the following is noted: water.
Another data set deals with DAP II. The experiment in a line: Enzyme kinetic study of synthetic substrates with DAP II. The class given is biochemical. Conditions: pH 5.6, rat pituitary homogenate 13.75 μg/mL protein equivalent, liberated D compound 7-amino-3-phenylcoumarin. An excerpt: (§1) In use for enzyme analysis, following enzyme cleavage of the bond between the C7 amino group and the A moiety, a detector group is liberated. This detector group is substantially identical to the precursor D moiety (although the amido group at C7 is converted to a primary amino group) and shall be hereinafter referred to as the liberated D compound.
(§2) The liberated D compounds from the above-described inventive synthetic substrates generally fluoresce strongly in the blue to yellow region of the spectrum once irradiated with ultraviolet light, whereas the intact synthetic substrates of the present invention fluoresce more weakly and at shorter wavelengths. The presence of the liberated D compound can be qualitatively or quantitatively determined fluorometrically, or may be utilized in colorimetric assays. Synthetic substrates in accordance with the present invention preferably fluoresce at wavelengths of at least about 460 nm. The FIG. 2 structure, for example, yields a liberated D compound which fluoresces at a wavelength of 472 nm, and the FIG. 3 structure at a wavelength of 505 nm.
The inventive synthetic substrates may be used in enzyme kinetic studies. Table I, below illustrates kinetic data of several synthetic substrates in accordance with the present invention (where the liberated D compound is 7-amino-3-phenylcoumarin) with 3 different enzymes. […]

Another data set has as its system Urokinase. The experiment in a line: Enzyme kinetic / reaction rate study of synthetic substrates with urokinase. The class given is biochemical. The settings on record: for 1/V: urokinase, pH8, 37° C., Ex = 410 nm, Em = 475 nm.
Source text: as §1, §2
(§3) The inventive synthetic substrates may be used in enzyme kinetic studies. Table I, below illustrates kinetic data of several synthetic substrates in accordance with the present invention (where the liberated D compound is 7-amino-3-phenylcoumarin) with 3 different enzymes.
(§4) Table II, below, tabulates the data from three Lineweaver-Burk plots of reaction rate studies utilizing several of the inventive synthetic substrates.

In a further data set the test system is Trypsin. Nature of the data set: Enzyme kinetic / reaction rate study of synthetic substrates with trypsin. It is filed as biochemical. The settings on record: for 1/V: trypsin, pH8, 37° C., Ex = 420 nm, Em = 485 nm; for Km / Vmax: Trypsin, pH 8.0, 200 ng/mL, liberated D compound 7-amino-3-phenylcoumarin.
Source text: as §1, §2, §3, §4

The nature of data set [3]: Solubility of liberated detector compounds in water. Conditions: in water as solvent, analogous to a buffered solution.
Where [4] appears, read: Urokinase, pH 8.0, 2.5 Plough units/ml, liberated D compound 7-amino-3-phenylcoumarin.

In general, Km refers to the substrate concentration at which the rate is half of its maximum. Usually Vmax stands for the top rate of the reaction or transport when substrate is in excess.

Take `Nc1ccc2c(C(F)(F)F)cc(=O)oc2c1` [7-amino-4-trifluoro-methyl coumarin, 7-amino-4-trifluoromethylcoumarin, reference compound]: in data set [1], the Em was found to be 500 nm, the Ex is recorded as 390 nm and the “Rel. Int.” value is listed as 1.0. Further, the Sol. in data set [2] is 0.017 mg/mL.

With `Br.Br.C[C@H](NC(=O)[C@@H](N)CCCCN)C(=O)Nc1ccc2cc(-c3ccccc3)c(=O)oc2c1.O` [Example VII, 7-(L-Lysyl-L-alaninamido)-3-phenylcoumarin Dihydrobromide Monohydrate], in the data set on DAP II, the Michaelis-Menten constant (Km) amounted to 321 µM and the Vmax was 0.346 nmol/min.

As for `N=C(N)NCCC[C@H](NC(=O)CNC(=O)CNC(=O)OCc1ccccc1)C(=O)Nc1ccc2cc(-c3ccccc3)c(=O)oc2c1` [Example X, 7-(Z-Glycylglycyl-L-arginamido)-3-phenylcoumarin], the 1/V is reported as 11 (nmol/ml/min)^-1 in the data set on Urokinase (1/S = 1 (mm)^-1); 13 (nmol/ml/min)^-1 in the data set on Urokinase (1/S = 2 (mm)^-1); 17 (nmol/ml/min)^-1 with Urokinase (1/S = 3.5 (mm)^-1); 22 (nmol/ml/min)^-1 with Urokinase (1/S = 5 (mm)^-1); 36 (nmol/ml/min)^-1 in the data set with Urokinase (1/S = 8.25 (mm)^-1); 42 (nmol/ml/min)^-1 in the data set on Urokinase (1/S = 11 (mm)^-1). For the same molecule, the figures for the 1/V with Urokinase (1/S = 12.25 (mm)^-1) and in the data set on Urokinase (1/S = 14.25 (mm)^-1) were 50 (nmol/ml/min)^-1 and 51 (nmol/ml/min)^-1, respectively. Moreover, the Km in the data set on Urokinase (setting [4]) is 411 µM. The maximal velocity (Vmax) in the data set on Urokinase (setting [4]) was 0.137 nmol/min.

As for `N=C(N)NCCC[C@H](NC(=O)c1ccccc1)C(=O)Nc1ccc2cc(-c3ccccc3)c(=O)oc2c1` [IX, 7-(Benzoyl-L-arginamido)-3-phenylcoumarin], the 1/V with Trypsin (1/S = 1.1 (mm)^-1) is reported as 4.9 (nmol/ml/min)^-1; with Trypsin (1/S = 1.7 (mm)^-1), 6.0 (nmol/ml/min)^-1; in the data set on Trypsin (1/S = 3.4 (mm)^-1), 10.0 (nmol/ml/min)^-1; with Trypsin (1/S = 6.7 (mm)^-1), 18.3 (nmol/ml/min)^-1; in the data set with Trypsin (1/S = 12.5 (mm)^-1), 35.0 (nmol/ml/min)^-1. In addition, the Km in the data set on Trypsin amounted to 945 µM. Besides, in the data set on Trypsin, the Vmax is on record as 0.414 nmol/min.

For `Nc1ccc2cc(-c3ccccc3)c(=O)oc2c1` [7-amino-3-phenyl coumarin, 7-amino-3-phenylcoumarin], in data set [1], the Em is reported as 472 nm, the Ex is recorded as 368 nm and the “Rel. Int.” value was 4.0. The Sol. in data set [3] worked out at 0.0012 mg/mL.

Consider `N=C(N)NCCC[C@H](NC(=O)OCc1ccccc1)C(=O)Nc1ccc2cc(-c3ccccc3)c(=O)oc2c1` [Example VIII, 7-(Z-L-Arginamido)-3-phenylcoumarin], for which the 1/V is given as 1.45 (nmol/ml/min)^-1 in the data set with Trypsin (1/S = 1.7 (mm)^-1); 2.25 (nmol/ml/min)^-1 with Trypsin (1/S = 3.3 (mm)^-1); 4.3 (nmol/ml/min)^-1 with Trypsin (1/S = 6.7 (mm)^-1); 7.6 (nmol/ml/min)^-1 with Trypsin (1/S = 12.5 (mm)^-1); 10.2 (nmol/ml/min)^-1 with Trypsin (1/S = 16.6 (mm)^-1). Also, the Km in the data set with Trypsin is 574 µM. In the data set with Trypsin, the maximum rate (Vmax) turned out to be 1.264 nmol/min.

Turning to `N=C(N)NCCC[C@H](NC(=O)OCc1ccc([N+](=O)[O-])cc1)C(=O)Nc1ccc2cc(-c3ccccc3)c(=O)oc2c1` [Example XII, 7-(4-NO2 -Z-L-Arginamido)-3-phenylcoumarin], in the data set on Trypsin, the Km turned out to be 193 µM and the maximum rate (Vmax) was found to be 0.174 nmol/min.
